Test results published in PMC12731536, “Sc(III) Complexes of Pyclen Derivative Ligands as Probes for Hypoxia: Synthesis, Chemical Characterization, ^44Sc‐Radiolabeling, and Preclinical Assessment” (Chemistry (Weinheim an Der Bergstrasse, Germany), 2025).

Columns and labels:
[1] = Stability constants of Sc(III) complexes, out‐of‐cell (batch) samples, 45Sc NMR; assay type: physicochemical; conditions: I = 1.00 M NaCl; for pSc: pSc = ‐log[Sc(III)]free, cSc(III) = 1x10^−8 M, clig = 1x10^−7 M; for log K ScL: stability constant of the Sc(III) complex, T = 25 °C
Procedure: The stability constant of the complex of PC2AM^nBu ligand formed with Sc(III) ion was studied using “out‐of‐cell” (batch) samples using ^45Sc NMR spectroscopy in strongly acidic media. Typical ^45Sc NMR spectra are shown in Figure 5 along with the corresponding ^1H NMR spectra of the aromatic region of the ligand.
Using the ^45Sc NMR signal intensities of free Sc^3+ measured in the equilibrated samples, the stability constant, K ScL, was calculated by fitting the areas with the PSEQUAD program ^[ [47] ^] (Figure 6). The best fitting was observed by considering the simplest model including only [Sc(PC2AM^nBu)]^+ species; that is, the formation of protonated [Sc(HPC2AM^nBu)]^2+ cannot be confirmed.
The stability constant of the [Sc(PCTA)] complex was determined in a similar way (Figure S13). The results were summarized in Table 2, including the data of [Sc(DO3AM‐NI)], determined in our previous study.^[ [33] ^]
Among the complexes shown in Table 2, the [Sc(DO3AM‐NI)] complex has the highest stability, but its stability constant is lower than the corresponding values of [Sc(DOTA)]^− (log K ScL = 30.79) and [Sc(DTPA)]^2− (log K ScL = 27.43). ^[ [49] ^] As evidenced for DO3AM‐mono(amide) the replacement of acetate side chains with amide groups results in a decrease in stability constant (and conditional stability); therefore, we can see an order of magnitude difference between the stabilities of [Sc(PCTA)] and [Sc(PC2AM^nBu)]^+. Although these K ScL constants and pSc values are somewhat lower than those of the complexes formed with traditional DOTA and DTPA ligands, these chelators remain remarkably good Sc(III)‐binding chelators. […] Therefore, following the proposal of M. Meyer and colleagues,^[ [48] ^] […] For the AL/M values, 1 corresponds to 90%, 2 corresponds to 99%, 3 corresponds to 99.9% etc. for complex formation. […] The AL/M data of the [Sc(PC2AM^nBu)]^+ complex only exceeds that of the [Sc(DO3AM‐NI)] complex in the pH < 3.0 range, which can be advantageous for labeling at low pH. Furthermore, based on the data in Table 2, it can be concluded that for these systems there is no discrepancy between the trends observed in the pSc and AL/M values.
The stability constant of [Sc(PC2AM^nBu)]^+ and [Sc(PCTA)] complexes was studied using “out‐of‐cell” (batch) samples using ^45Sc and ^1H NMR spectroscopy. The NMR spectra were obtained using a Bruker Avance II DRX spectrometer (9.4 T), equipped with Bruker Variable Temperature Unit, Bruker Cooling Unit, and a 5 mm BB inverse z gradient probe. For the investigation of [Sc(PC2AMnBu)]⁺, twelve samples (cSc(III) = 3.00 mM, cligand = 3.06 mM, in the pH range of –log[H^+] = 0.1–1.3; I = 1.0 M NaCl/HCl) were prepared in NMR tubes and kept at 25 °C for one week to reach equilibrium. During this period, ^1H and ^45Sc NMR measurements were performed daily to monitor changes in signal intensities. No significant changes were detected after one week, even in the most acidic sample. The intensities of the free Sc(III) signals were normalized using a standard 50 mM ScCl3 solution containing 1 M HCl (20% D2O). For the determination of the stability of the [Sc(PCTA)] complex, eleven “batch” samples (cSc(III) = 4.00 mM, cligand = 4.08 mM), in the pH range of –log[H^+] = 0.1–1.25, were prepared. The evaluation of the measured data was performed using the PSEQUAD program.^[ [47] ^] Samples were prepared in H2O, with 10% D2O added for deuterium lock. The actual resonance frequencies for ^1H, ^13C, ^19F, and ^45Sc are indicated in the text and figure captions. The chemical shifts of ^1H and ^13C were calibrated using an external TMS standard, while ^19F was referenced to CCl3F. The ^45Sc NMR shift was calibrated to 0 ppm using a 5 mM solution of ScCl3 in 0.1 M HCl.

[2] = Acid‐assisted dissociation (decomplexation) of Sc(III) complexes, UV spectroscopy; assay type: physicochemical
Description: The inertness of metal complexes is a basic requirement in all relevant modalities of medical imaging. Complexes of macrocyclic ligands are often more inert compared to open‐chain analogs. In order to assess the behavior of our complexes, the decomplexation of [Sc(PC2AM^nBu)]^+ and [Sc(PCTA)] was studied in a strongly acidic medium (cH + = 1.6 ‐ 2.6 M HClO4) by using UV spectroscopy. […] The primary Abs. versus time curves have been fitted by monoexponential function returning kobs (s^−1) values (Figures S22 and S23).
The plots of the rate constants as a function of acid concentration yielded linear relationships for both complexes (k obs = k 0 + k 1[H^+]). The slopes of these lines correspond to the rate coefficients characteristic for acid‐assisted dissociation (k 1), whereas the intercepts characterize the acid‐independent part, often referred to as a rate of spontaneous dissociation. […] The rate coefficients obtained during the fitting are summarized in Table 3, along with the half‐lives calculated from the rate coefficients by using 1 M acid concentration (t ½ = ln 2 / k obs).
Kinetic studies of the dissociation of the [Sc(PC2AMnBu)]^+ and [Sc(PCTA)] complexes were carried out by examining the dependence of the dissociation rates on acid concentration. Spectrophotometric measurements were conducted on a JASCO V‐760 spectrophotometer at λ = 280 nm. The concentration of the complex in the sample was 0.30 mM, and HClO4 was applied in concentrations ranging from 1.6 to 2.6 M. The evaluation of the measured data was performed with Scientist software ^[ [62] ^] to determine the k 0 (spontaneous) and k 1 (acid‐assisted) reaction rates.

[3] = dissociation of the Sc(III) complex, 1.6‐2.6 M HClO4, 25 °C, I = 2.6 M

Row | SMILES | AL/M (relative affinity) ([1]; [Sc(III)]total = 10 nM, [L]tot = 100 nM, pH = 7.4) | pSc ([1]; pH = 7.4) | log K ScL [1] | k 0 (spontaneous dissociation) [2, 3] | k 1 (acid‐assisted dissociation) [2, 3] | t 1/2 of dissociation (1 M H^+) ([2]; calculated from rate coefficients at 1 M acid concentration, 25 °C) [days]
1 | O=C(O)CN1CCN(CC(=O)O)Cc2cccc(n2)CN(CC(=O)O)CC1 [PCTA, reference compound] | 7.14 | 21.28 | 22.41(9) | (4.21 ± 0.81) x 10^−6 s^−1 | (2.11 ± 0.38) x 10^−6 M^−1s^−1 | 
2 | CCCCNC(=O)CN1CCN(CC(=O)[O-])Cc2cccc(n2)CN(CC(=O)[O-])CC1.[Sc+3] [[Sc(PC2AM^nBu)]^+] |  | 19.32 | 19.53(4) |  |  | 22
